Measurements as given in US20100015147A1 (priority 2001, published 2010).
Entries after “also recorded” stand apart in the source; their conditions may differ. Read-outs that look alike come from different tables or passages of the source.

What was measured:
mammalian neuraminidase = details: cultures of human macrophagic cells; cited from earlier work
Swiss-Webster (SW) mice [1] = type: in vivo
Swiss-Webster (SW) mice [2] = assay: Hot-water-immersion tail-flick antinociception assays with neuraminidase inhibitors (temperature not given); type: in vivo
Swiss-Webster (SW) mice [3] = type: in vivo; details: for effect on low-dose κ-opioid-induced hyperalgesia, compared with CTX-B cotreatment: 10 ng/kg U-50,488H plus ultralow (pg/kg) dose of antagonist
Swiss-Webster (SW) mice [4] = type: in vivo; remark: listed apart in the source
[5] = test system: male dental-pain patients; details: cited from earlier work
Swiss-Webster (SW) mice [6] = details: low doses in naïve mice; cited from earlier work
mice = details: cited from earlier work

O=S(=O)([O-])[O-].[Mg+2] [MgSO4]
effect on mammalian neuraminidase activity (mammalian neuraminidase): potent inhibitory effects on mammalian neuraminidase activity

O=S(=O)([O-])[O-].[Na+].[Na+] [Na2SO4]
NLX-precipitated withdrawal hyperalgesia (Swiss-Webster (SW) mice [1]; mouse, in vivo): prevented NLX-precipitated withdrawal hyperalgesia | results of antinociception assays compared with oseltamivir (Swiss-Webster (SW) mice [2]; 3 μg/kg morphine plus 10 mg/kg Na2SO4): surprisingly similar | development of tolerance (Swiss-Webster (SW) mice [2]; 10 mg/kg Na2SO4 plus 3 mg/kg morphine, daily injections for 5 days): prevented development of tolerance during daily injections for 5 days | effect on morphine analgesia (Swiss-Webster (SW) mice [2]; chronic 10 mg/kg Na2SO4 plus 3 mg/kg morphine): enhanced analgesia | effect on mammalian neuraminidase activity (mammalian neuraminidase): potent inhibitory effects on mammalian neuraminidase activity

CN1CC[C@]23c4c5ccc(O)c4O[C@H]2[C@@H](O)C=C[C@H]3[C@H]1C5 [morphine]
effect on tail-flick latency, opioid alone (Swiss-Webster (SW) mice [3]; 0.1 μg/kg morphine s.c. alone, control groups): marked hyperalgesia; also recorded: characteristic hyperalgesia | duration of decreases in tail-flick latencies (hyperalgesia) after drug injection (Swiss-Webster (SW) mice [3]; 1 μg/kg morphine s.c. alone, 52° C., male mice): 4 to 5 h | time after opioid injection to hyperalgesia (Swiss-Webster (SW) mice [3]; 1 mg/kg morphine s.c. alone, control group of female mice): ≤ 2 h | decreases in tail-flick latencies (Swiss-Webster (SW) mice [3]; ca. 1 μg/kg morphine s.c. alone, 52° C.): 1 to 2 s | time course of antinociceptive effect, morphine alone (Swiss-Webster (SW) mice [4]; 3 mg/kg morphine alone, 55° C.): sharply decreased after the first-hour peak | analgesic effects after chronic morphine alone (tolerance) (Swiss-Webster (SW) mice [4]; daily 3 mg/kg morphine alone, 5 days): sharply decreased by 5 days | response after chronic morphine only (Swiss-Webster (SW) mice [2]; morphine-only group, 5 days (FIG. 9)): marked hyperalgesia

Oc1ccc2c3c1O[C@H]1[C@@H](O)CC[C@@]4(O)[C@@H](C2)N(CC2CCC2)CC[C@]314 [nalbuphine]
effect on pain within 1 h after injection ([5]; nalbuphine 5 mg i.v.): hyperalgesia

C=CCN1CC[C@]23c4c5ccc(O)c4O[C@H]2C(=O)CC[C@@]3(O)[C@H]1C5 [naloxone]
duration of NLX-evoked hyperalgesic response (Swiss-Webster (SW) mice [1]; chronic morphine (e.g., 10 mg/kg for 5-6 days), withdrawal, 10 μg/kg NLX): more than 5 h | effect on baseline tail-flick latency (Swiss-Webster (SW) mice [6]): did not alter the baseline tail-flick latency | effect on nalbuphine-induced hyperalgesia ([5]; cotreatment with 0.5 mg naloxone): blocked

O=C1CC[C@@]2(O)[C@H]3Cc4ccc(O)c5c4[C@@]2(CCN3CC2CC2)[C@H]1O5 [naltrexone]
effect on low-dose κ-opioid-induced hyperalgesia, compared with CTX-B cotreatment (Swiss-Webster (SW) mice [3]): similar | effect on low-dose κ-opioid-induced hyperalgesia, compared with CTX-B cotreatment (Swiss-Webster (SW) mice [3]; listed as NTX): comparable; also recorded: selectively blocked | block of low-dose morphine hyperalgesia and unmasking of analgesia, compared with CTXB cotreatment (Swiss-Webster (SW) mice [3]; 1 μg/kg morphine plus 1 pg/kg (ultralow-dose) naltrexone): similar | effect on baseline tail-flick latency (Swiss-Webster (SW) mice [6]): did not alter the baseline tail-flick latency

Oc1ccc2c3c1O[C@H]1c4[nH]c5c(c4C[C@@]4(O)[C@@H](C2)N(CC2CC2)CC[C@]314)C[C@@]1(O)[C@H]2Cc3ccc(O)c4c3[C@@]1(CCN2CC1CC1)[C@H]5O4 [nor-binaltorphimine]
effect on low-dose κ-opioid-induced hyperalgesia, compared with CTX-B cotreatment (Swiss-Webster (SW) mice [3]): comparable; also recorded: selectively blocked; also recorded: similar

CCOC(=O)C1=C[C@@H](OC(CC)CC)[C@H](NC(C)=O)[C@@H](N)C1 [oseltamivir]
NLX-precipitated withdrawal hyperalgesia (Swiss-Webster (SW) mice [1]; chronic cotreatment with morphine plus oseltamivir): prevented development of NLX-precipitated withdrawal hyperalgesia | time to development of morphine tolerance after withdrawal of oseltamivir (Swiss-Webster (SW) mice [2]; FIG. 10): ≤ 1 days | development of opioid tolerance (Swiss-Webster (SW) mice [2]; chronic cotreatment with morphine plus oseltamivir (FIGS. 8 and 9)): attenuates development of opioid tolerance | development of opioid tolerance (Swiss-Webster (SW) mice [2]; chronic oseltamivir plus morphine for 3 days (FIG. 8)): prevents development of opioid tolerance | effect on analgesic potency of higher doses of morphine (Swiss-Webster (SW) mice [2]; cotreatment with oseltamivir, male mice (FIG. 7)): markedly enhances the analgesic potency | effect on low-dose morphine-induced hyperalgesia (Swiss-Webster (SW) mice [2]; morphine plus oseltamivir s.c., male mice (FIG. 6)): selectively blocks; also recorded: blocks low-dose, morphine-induced hyperalgesia | effect of adding oseltamivir to chronic morphine-tolerant mice (Swiss-Webster (SW) mice [2]; oseltamivir added for 1 day (FIG. 10)): restores prominent analgesia | morphine analgesia after chronic cotreatment (Swiss-Webster (SW) mice [2]; oseltamivir plus morphine, 5 days (FIG. 9)): still show prominent morphine (Mor) analgesia

dynorphin
effect on tail-flick latency (mice; dynorphin 0.5 μg/kg s.c., tested at 90 min post-injection): thermal hyperalgesia | effect on tail-flick latency (mice; dynorphin 50 μg/kg): analgesia
